According to patent publication US10487348B2, “3-alpha-hydroxysteroid dehydrogenase mutants and process for the preparation of ursodeoxycholic acid” (Pharmazell GmbH, priority 2014, dated 2019):
Positions count from the first letter of the chain named.

What was measured:
[1] = target: T1, Comamonas testosteroni 3α-HSDH dual mutant [P185A/T188A], N-terminal hexahistidine tag (Comamonas testosteroni, UniProt P80702, P185A/T188A); test: Kinetics of 3α-HSDH [P185A/T188A], N-terminal His tag
T1 sequence (P80702 1-257 P185A/T188A): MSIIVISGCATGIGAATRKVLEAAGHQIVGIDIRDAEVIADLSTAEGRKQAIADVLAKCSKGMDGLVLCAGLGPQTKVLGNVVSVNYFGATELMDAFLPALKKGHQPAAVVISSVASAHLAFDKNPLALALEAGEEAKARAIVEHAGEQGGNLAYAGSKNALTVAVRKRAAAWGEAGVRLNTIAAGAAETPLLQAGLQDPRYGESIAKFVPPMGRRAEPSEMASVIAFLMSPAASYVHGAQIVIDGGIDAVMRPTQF

[2] = target: T2, Comamonas testosteroni 3α-HSDH mutant [L68A], N-terminal hexahistidine tag (Comamonas testosteroni, UniProt P80702, L68A)
T2 sequence (P80702 1-257 L68A): T1 sequence (P80702 1-257 P185A/T188A) with L68A, A185P, A188T
Method: After cultivation and expression, the proteins were purified by means of Ni-NTA chromatography, the specific activities were determined and their kinetic constants were determined.

[3] = target: T3, Comamonas testosteroni 3α-HSDH, wild type, C-terminal 3×His tag (Comamonas testosteroni, UniProt P80702); test: Michaelis-Menten kinetics of 3α-HSDH with 3×His tag; settings: His tag length 3; DHCA 10 μM-10 mM; NADH 0.2 mM; purified
T3 sequence (P80702 with tags, fused parts or gaps): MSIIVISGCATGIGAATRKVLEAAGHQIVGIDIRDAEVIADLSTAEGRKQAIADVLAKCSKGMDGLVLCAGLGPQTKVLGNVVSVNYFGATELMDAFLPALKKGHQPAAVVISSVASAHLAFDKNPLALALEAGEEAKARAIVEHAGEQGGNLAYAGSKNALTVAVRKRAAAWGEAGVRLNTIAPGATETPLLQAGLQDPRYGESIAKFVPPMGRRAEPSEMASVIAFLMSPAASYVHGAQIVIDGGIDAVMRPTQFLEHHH
Source text: The His-tag allows for very simple purification of the HSDH protein since this sequence is bound with high specificity by specific chromatographic material (NTA (Ni-nitrilotriacetate)-modified support material, loaded with divalent nickel ions, for example “His Pur Ni-NTA” (Nimagen B. V., Nijmegen, The Netherlands)). To this end, the cell-free crude extract is applied to a dropping column comprising this material, which dropping column has previously been equilibrated with the disruption buffer (3 to 5 column volumes). Weakly binding protein was removed by washing with 3 to 5 column volumes of wash buffer (20 mM imidazole, 50 mM sodium phosphate, 300 mM NaCl, pH 8). […] The process was carried out at room temperature. The imidazole which was present was to be removed by buffer exchange.
Following expression (25° C., 0.5 mM, IPTG, 20 hours), the protein was purified, and the expression and the purification were checked by means of an SDS gel. […] The NADH concentration was 0.2 mM. Purified protein was employed in the measurements.

[4] = target: T4, Comamonas testosteroni 3α-HSDH dual mutant [L68A/T188S], N-terminal hexahistidine tag (Comamonas testosteroni, UniProt P80702, L68A/T188S)
T4 sequence (P80702 1-257 L68A/T188S): T1 sequence (P80702 1-257 P185A/T188A) with L68A, A185P, A188S

[5] = target: T5, Comamonas testosteroni 3α-HSDH mutant [T188G], N-terminal hexahistidine tag (Comamonas testosteroni, UniProt P80702, T188G); test: Kinetics of 3α-HSDH [T188G], N-terminal His tag; type: biochemical; settings: DHCA
T5 sequence (P80702 1-257 T188G): T1 sequence (P80702 1-257 P185A/T188A) with A185P, A188G
Method: The activity of the 3α-HSDH and of the mutants was determined using a photometric assay, where the decrease in absorbance was measured at 340 nm over a period of 30 seconds.
The targeted exchange of amino acid radicals was performed analogously to Example 2B.
Following cultivation and expression, the cells were harvested, and the specific activities of the cell-free crude extracts were determined at substrate concentrations of 10 mM DHCA. The enzyme variants where the activity measurements with crude extract enzyme were most promising were purified by means of Ni-NTA chromatography, and their kinetic constants were determined by measurements with different DHCA concentrations of between 10 μM and 20 mM. In addition, an expression check by means of SDS PAGE was carried out for all mutants.

[6] = target: T6, Comamonas testosteroni 3α-HSDH mutant [T188A], N-terminal hexahistidine tag (Comamonas testosteroni, UniProt P80702, T188A); test: Kinetics of 3α-HSDH [T188A], N-terminal His tag
T6 sequence (P80702 1-257 T188A): T1 sequence (P80702 1-257 P185A/T188A) with A185P

[7] = Table 14, substrate DHCA, tag N, apparent values
[8] = Table 14, substrate DHCA, tag N, NADH 0.2 mM, apparent values

C[C@H](CCC(=O)O)[C@H]1CC[C@H]2[C@@H]3C(=O)C[C@@H]4CC(=O)CC[C@]4(C)[C@H]3CC(=O)[C@]12C [DHCA, dehydrocholic acid]
kcat [1, 7]: 17.6 s⁻¹
vmax [1, 7]: 36.9 ± 2.6 U/mg
remaining activity at 10000 µM ([1]; read-out: residual activity): ~30%
kcat [2, 8]: 138.0 s⁻¹
vmax [2, 8]: 290.0 ± 45.4 U/mg
remaining activity at 1000 µM ([2]; read-out: residual activity): ~15%
remaining activity at 10000 µM ([2]; read-out: residual activity): ~8%
kcat [3]: 6.5 ± 2.1 s⁻¹
vmax [3]: 14.3 ± 4.8 U/mg
kcat [4, 7]: 91.8 s⁻¹
vmax [4, 7]: 193.2 ± 11.4 U/mg
remaining activity at 10000 µM ([4]; read-out: residual activity): ~20%
substrate excess inhibition [5]: No pronounced substrate excess inhibition
kcat [6, 7]: 130.3 s⁻¹
vmax [6, 7]: 274.0 ± 11.6 U/mg
remaining activity at 20000 µM ([6]; read-out: residual activity): ~20%
